# Paper PMC9909988, “Procoxacin bidirectionally inhibits osteoblastic and osteoclastic activity in bone and suppresses bone metastasis of prostate cancer” (Journal of Experimental & Clinical Cancer Research : CR, 2023)
# Molecular target: T1, 14–3-3ζ (Homo sapiens, UniProt P63104)
# T1 construct: gene YWHAZ
# Assay: SPR (Biacore T200, […]-3ζ ab87361 captured on NTA chip); supported by Pro-conjugated magnetic bead pull-down from C4-2B lysate
# Assay type: binding
# T1 sequence (P63104 whole entry): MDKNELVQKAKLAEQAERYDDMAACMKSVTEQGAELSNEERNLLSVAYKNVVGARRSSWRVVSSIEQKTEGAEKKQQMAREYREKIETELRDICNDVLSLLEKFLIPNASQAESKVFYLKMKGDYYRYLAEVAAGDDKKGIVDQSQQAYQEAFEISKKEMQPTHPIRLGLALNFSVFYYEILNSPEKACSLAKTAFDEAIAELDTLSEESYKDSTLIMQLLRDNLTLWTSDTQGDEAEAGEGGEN
smiles,measurement,value
"CC[C@@H](C(=O)[C@@H](C)[C@@H](O)[C@H](C)[C@@H]1O[C@@H]([C@@H](CC)C(=O)O)CC[C@@H]1C)[C@H]1O[C@]2(C=C[C@@H](O)[C@]3(CC[C@@](C)([C@H]4CC[C@](O)(CC)[C@H](C)O4)O3)O2)[C@H](C)C[C@@H]1C [Pro, Procoxacin]",Kd,1930 nM
